# From patent publication US20110046107A1, “SULFONYL-SUBSTITUTED CARBAPENEM COMPOUNDS” (priority 2007, published 2011)
# Like-named read-outs stand apart in the source and are kept apart here.
# Assays:
# Assay in all cases: In vitro antibacterial activity, agar dilution method (clinical isolates)
# Type in all cases: cell-based
# [1] = test system: Escherichia coli; details: clinically isolated strains, Gram-negative, read-out: MIC90 E. coli
# Source text: (§1) Bacterial strains for test: All the bacterial strains are clinical isolates and purchased from public organizations. methicillin-sensitive staphylococcus aureus (MS SA), methicillin-resistant staphylococcus aureus (MRSA), methicillin-sensitive staphylococcus epidermidis (MSSE), methicillin-resistant staphylococcus epidermidis (MRSE), streptococcus pyogenes, penicillin-sensitive streptococcus pneumoniae (PSSP), penicillin-resistant streptococcus pneumoniae (PRSP), Escherichia coli, Citrobacter freundii, Enterobacter cloacae, Hemophilus influenza, Klebsiella pneumonia (producing ESBL), Morganella morganii, Proteus mirabilis, Serratia marcescens, and Pseudomonas aeruginosa.
# (§2) Drugs to be tested: compounds of the invention prepared in the examples; the chemical names, structural formulae, preparation materials, and preparation methods are provided in the preparation examples of the compounds;
# (§3) Meropenem (Meropenem for injection), Ertapenem (Ertapenem for injection), and Doripenem (Doripenem for injection) commercially available
# (§4) Experimental method: the agar dilution method, by reference to Methodology of Pharmacological Experiment (XU Shuyun et al, published by the Peoples Medical Publishing House, 1st Edition, August, 1982; 3rd Edition, 5th printing, January 2002, p 1659-1660).
# [2] = test system: streptococcus pyogenes; details: clinically isolated strains, Gram-positive, read-out: MIC90 S. pyogenes
# Source text: as §1, §2, §3, §4
# [3] = test system: methicillin-resistant staphylococcus aureus (MRSA); details: clinically isolated strains, Gram-positive, read-out: MIC90 S. aureus MRSA
# Source text: as §1, §2, §3, §4
# [4] = test system: Citrobacter freundii; details: clinically isolated strains, Gram-negative
# Source text: as §1, §2, §3, §4
# [5] = test system: Proteus mirabilis; details: read-out: MIC90 Proteus mirabilis
# Source text: as §1, §2, §3, §4
# [6] = test system: Morganella morganii; details: clinically isolated strains, Gram-negative
# Source text: as §1, §2, §3, §4
# [7] = test system: Hemophilus influenza; details: read-out: MIC90 Hemophilus influenza
# Source text: as §1, §2, §3, §4
# [8] = test system: Serratia marcescens; details: read-out: MIC90 Serratia marcescens
# Source text: as §1, §2, §3, §4
# [9] = test system: penicillin-sensitive streptococcus pneumoniae (PSSP); details: clinically isolated strains, Gram-positive, read-out: MIC90 S. pneumoniae PSSP
# Source text: as §1, §2, §3, §4
# [10] = test system: methicillin-resistant staphylococcus epidermidis (MRSE); details: clinically isolated strains, Gram-positive, read-out: MIC90 S. epidermidis MRSE
# Source text: as §1, §2, §3, §4
# [11] = test system: Enterobacter cloacae; details: read-out: MIC90 Enterobacter cloacae
# Source text: as §1, §2, §3, §4
# [12] = test system: penicillin-resistant streptococcus pneumoniae (PRSP); details: clinically isolated strains, Gram-positive, read-out: MIC90 S. pneumoniae PRSP
# Source text: as §1, §2, §3, §4
# [13] = test system: methicillin-sensitive staphylococcus aureus (MSSA); details: read-out: MIC90 S. aureus MSSA
# Source text: as §1, §2, §3, §4
# [14] = test system: methicillin-sensitive staphylococcus epidermidis (MSSE); details: read-out: MIC90 S. epidermidis MSSE
# Source text: as §1, §2, §3, §4
# [15] = test system: Klebsiella pneumonia (producing ESBL); details: Klebsiella pneumoniae, read-out: MIC90 Klebsiella pneumonia
# Source text: as §1, §2, §3, §4
# [16] = test system: Pseudomonas aeruginosa; details: clinically isolated strains, Gram-negative
# Source text: as §1, §2, §3, §4
# [17] = clinically isolated strains, Gram-negative, agar dilution
# [18] = clinically isolated strains, Gram-positive, agar dilution
# [19] = clinically isolated strains (producing ESBL), Gram-negative, agar dilution
Compound,MIC90 [1] [µg/mL],MIC90 [2] [ng/mL],MIC90 [3] [µg/mL],MIC90 [4] [µg/mL],"MIC90 [5, 17] [µg/mL]",MIC90 [6] [µg/mL],"MIC90 [7, 17] [µg/mL]","MIC90 [8, 17] [µg/mL]",MIC90 [9] [µg/mL],MIC90 [10] [µg/mL],"MIC90 [11, 17] [µg/mL]",MIC90 [12] [µg/mL],"MIC90 [13, 18] [µg/mL]","MIC90 [14, 18] [µg/mL]","MIC90 [15, 19] [µg/mL]",MIC90 [16] [µg/mL],MIC90 [8] [µg/mL],MIC90 [11] [µg/mL],also measured
"C[C@@H](O)[C@H]1C(=O)N2C(C(=O)O)=C(SC3CCCN(S(N)(=O)=O)C3)[C@H](C)[C@H]12 (stereo partly drawn) [Compound 3, (4R,5S,6S)-3-[N-aminosulfonyl-piperidin-3-yl]thio-6-[(1R)-1-hydroxyethyl]-4-methyl-7-oxo-1-aza-bicyclo-[3.2.0]hept-2-ene-2-carboxylic acid]",0.032,8,16,0.063,0.125,0.032,0.25,0.125,0.016,8,0.125,0.5,0.125,0.125,0.063,16,,,
C[C@@H](O)[C@H]1C(=O)N2C(C(=O)[O-])=C(SC3CN(S(=O)(=O)NCC(O)CN)C3)[C@H](C)[C@H]12.[Na+] (some centres unmarked) [sodium salt of compound 9],0.016,8,16,0.032,0.63,0.032,,,0.008,8,0.063,0.5,0.032,0.063,0.063,16,0.125,,MIC90 [7]: 0.125 µg/mL
"C[C@@H](O)[C@H]1C(=O)N2C(C(=O)O)=C(SC3CN=CN(S(N)(=O)=O)C3)[C@H](C)[C@H]12 (stereo partly drawn) [Compound 4, (4R,5S,6S)-3-[1(4H)-aminosulfonyl-5,6-dihydropyrimidin-5-yl]-thio-6-[(1R)-1-hydroxyethyl]-4-methyl-7-oxo-1-aza-bicyclo-[3.2.0]hept-2-ene-2-carboxylic acid]",0.032,16,8,0.032,,0.063,0.125,,0.016,16,,1,,0.063,0.063,32,0.125,0.125,MIC90 [5]: 0.125 µg/mL; MIC90 [13]: 0.125 µg/mL
"C[C@@H](O)[C@H]1C(=O)N2C(C(=O)O)=C(SC3CNCN(S(N)(=O)=O)C3)[C@H](C)[C@H]12 (stereo partly drawn) [Compound 5, (4R,5S,6S)-3-[1(2H)-aminosulfonyl-tetrahydropyrimidin-5-yl]-thio-6-[(1R)-1-hydroxyethyl]-4-methyl-7-oxo-1-aza-bicyclo-[3.2.0]hept-2-ene-2-carboxylic acid]",0.032,16,16,0.032,0.063,0.063,0.125,0.063,0.016,16,0.25,1,0.25,,,16,,,MIC90 [14]: 0.125 µg/mL; MIC90 [15]: 0.125 µg/mL
"C[C@@H](O)[C@H]1C(=O)N2C(C(=O)O)=C(S[C@H]3CCN(S(N)(=O)=O)C3)[C@H](C)[C@H]12 [Compound 2, (4R,5S,6S)-3-[(3S)-N-aminosulfonyl-pyrrolidin-3-yl]thio-6-[(1R)-1-hydroxyethyl]-4-methyl-7-oxo-1-aza-bicyclo-[3.2.0]hept-2-ene-2-carboxylic acid]",0.016,8,16,0.032,0.63,0.063,,,0.016,8,,0.5,0.063,0.063,,8,0.125,0.125,MIC90 [7]: 0.125 µg/mL; MIC90 [15]: 0.125 µg/mL
C[C@@H](O)[C@H]1C(=O)N2C(C(=O)O)=C(SC3CN(S(=O)(=O)NCC(N)=O)C3)[C@H](C)[C@H]12 [Compound 10],0.008,8,8,0.032,0.063,0.016,0.125,0.063,0.008,16,,5,0.063,0.063,0.063,8,,0.125,
"CCN(CC)S(=O)(=O)N1CC(SC2=C(C(=O)O)N3C(=O)[C@H]([C@@H](C)O)[C@H]3[C@H]2C)C1 [Compound 7, (4R,5S,6S)-3-[1-(N,N-diethylaminosulfonyl)-azetidin-3-yl]thio-6-[(1R)-1-hydroxyethyl]-4-methyl-7-oxo-1-aza-bicyclo-[3.2.0]hept-2-ene-2-carboxylic acid]",0.016,4,8,0.016,,0.063,0.125,0.063,0.008,8,,0.5,0.063,0.063,0.063,8,,0.125,MIC90 [5]: 0.125 µg/mL
"C[C@@H](O)[C@H]1C(=O)N2C(C(=O)O)=C(S[C@@H]3CN[C@H](C(=O)Nc4cccc(C(=O)O)c4)C3)[C@H](C)[C@H]12 [ertapenem, Ertapenem, reference compound]",0.25,32,> 64,0.25,1,0.25,1,0.5,0.063,64,2,2,0.5,0.5,1,32,,,
